Measured values taken from patent US12390451B2, “Small molecule inhibitor of the JAK family of kinases” (Janssen Pharmaceutica NV, priority 2021, dated 2025).
Where two headings read alike, the source gives them in different places.

Columns and labels:
JAK1/Tyk2 [1] = target: T1, JAK1/Tyk2 (Homo sapiens, UniProt P23458+P29597); assay: IFNα-induced pSTAT-3 in human whole blood; type: cell-based; conditions: mean
T1 construct: endogenous in cells; host or cells: human whole blood
Procedure: (§1) Compound of Formula I presents low levels of systemic exposure after oral administration. To understand the relationship between systemic exposure and target engagement in human studies, the inhibition of cytokine-induced pSTAT-3 in human whole blood was measured with such compound. In human whole blood, compound of Formula I in a concentration-dependent manner inhibited the JAK1, JAK2, JAK3, and Tyk2 homo- and heterodimers downstream of IFNα (JAK1/Tyk2), thrombopoietin (TPO) (JAK2/JAK2), and IL-21 (JAK1/JAK3) signaling.

[2] = test system: IL-22/IL-6/IFNα-induced pSTAT-3 response; assay: Ex vivo mouse colon explant model (IL-22/IL-6/IFNα) after oral dosing; type: in vivo, C57BL/6 mice; conditions: for inhibition at 0.5 mg/kg: oral 0.5 mg/kg; for inhibition at 2.5 mg/kg: oral 2.5 mg/kg; for inhibition at 5 mg/kg: oral 5 mg/kg; for inhibition at 25 mg/kg: oral 25 mg/kg
From the text: (§2) To understand the potential of local, enteric-selective JAK inhibitors to inhibit STAT signaling in colon tissue, two pharmacokinetic/pharmacodynamic (PK/PD) studies were developed. The first involved the combined intraperitoneal administration of IL-12 and IL-18 in mice which induces a systemic inflammatory response resulting in activation of the JAK/STAT pathway in colonic tissue which can be monitored by robust phosphorylation of STAT3 three hours after challenge. The second PK/PD model involves the ex vivo stimulation of mouse colon tissue with a cocktail of cytokines (IL-22, IL-6, and IFNα), measuring the inhibition of STAT3 phosphorylation after oral dosing of compound of Formula I.
In addition to the IL-12/IL-18 model described above, local efficacy of compound of Formula I was further established in a mouse cytokine mixture (IL-22/IL-6/IFNα) colon explant model. A combination of IL-22, IL-6 and IFNα induced a rapid and robust pSTAT-3 response in mouse colon explants ex vivo 1 hour post challenge. This study aimed at examining the dose response and duration of action of compound of Formula I on IL 22/IL 6/IFNα-induced pSTAT-3 response in an ex vivo mouse colon explant model.
C57BL/6 mice (6 to 8 weeks old) were randomized by weight and assigned to various treatment groups for each study. Mice were dosed orally with indicated doses of compound of Formula I. At the termination of the study, blood was collected via cardiocentesis, serum and washed proximal colon was prepared for PK analysis.
Distal colon explants (approximately 3 mm^2) were either untreated or treated with cytokines (IL 6, IL-22, IFNα at 100 ng/mL each). Following stimulation for 1 hour, tissue was snap-frozen for homogenization and assayed for pSTAT-3.

[3] = test system: IL-12/IL-18-induced pSTAT-3 in the colon; assay: IL-12/IL-18-induced colonic pSTAT-3 response in mice after oral dosing; type: in vivo, C57BL/6 mice; conditions: Mus musculus, read-out: Percent Inhibition of colonic pSTAT-3
From the text: as §2
The combined intraperitoneal administration of IL-12 and IL-18 induces colonic inflammation in mice (Chikano S, et al. Gut 47(6),779-786 (2000) “IL-18 and IL-12 induce intestinal inflammation and fatty liver in mice in an IFN-gamma dependent manner”; Nold-Petry C, et al. Front Immunol. 8, 1531(2017) “Gp96 Antagonist Protects in Murine-Intestinal-Inflammation”). An inflammatory response in colonic tissue can be monitored by robust phosphorylation of STAT3 three hours after challenge with IL 12/IL-18. In this non-GLP study, the effect of the orally administered compound of Formula I was evaluated on STAT3 responses in mouse colonic tissue induced by systemic dosing of both IL-12 and IL 18.
C57BL/6 mice (6 to 8 weeks old) were randomized by weight and assigned to various treatment groups for each of two studies. Mice were challenged intraperitoneally with a combination of IL-12 (250 ng) and IL-18 (1 μg). To examine the effect of compound of Formula I on IL-12/IL-18-induced pSTAT-3 response, groups of mice were orally dosed with compound of Formula I 1 hour prior to IL-12/IL-18 challenge. Three hours after IL-12/IL-18 challenge, mice were euthanized with CO2 asphyxiation, blood was collected via cardiocentesis for PK analysis, and colon tissues were collected for measuring pSTAT-3 response and drug levels. Mice dosed orally with 20% 2-hydroxypropyl-β-cyclodextrin (HP-β-CD) were used as vehicle controls. Two independent studies (S-1 and S-2) were conducted to examine the effect of compound of Formula I on IL-12/IL-18-induced colonic pSTAT-3 response in mice. […] Serum levels were measured at 30 minutes and 4 hours (terminal) after dosing. […] Colon drug levels were measured 4 hours after dosing. […] Colonic exposure of compound of Formula I increased in a dose-dependent fashion. At 25 mg/kg dose, colonic exposure of compound of Formula I was 30814.5±5552.5 ng/g and 18256.5±4118.8 ng/g tissue. […] Oral dosing of compound of Formula I in mice resulted, as shown in other studies, in minimum systemic exposure and lack of consistent dose-dependent pharmacodynamic responses in the blood.
Percent inhibition of colonic pSTAT-3 was determined using log transformed data following outlier removal.

JAK1/JAK3 = target: T2, JAK1/JAK3 (Homo sapiens, UniProt P23458+P52333); assay: IL-21-induced pSTAT-3 in human whole blood; type: cell-based; conditions: mean
T2 construct: endogenous in cells; host or cells: human whole blood
Procedure: as §1

JAK1/Tyk2 [4] = target: T3, JAK1/Tyk2 (Mus musculus, UniProt P52332+Q9R117); assay: IFNα-induced pSTAT-3 in murine whole blood; type: cell-based
T3 construct: endogenous in cells; host or cells: murine whole blood
Procedure: Mouse whole blood IC50 values were also generated to build an understanding of the relationship between systemic exposures and target engagement in murine models. In murine whole blood, the in vitro activity of compound of Formula I in the inhibition of IFNα-(JAK1/Tyk2), IL-21-(JAK1/3), and IL-12-(JAK2/Tyk2) induced pSTAT responses in murine whole blood was measured. […] No reliable IC50 could be reported for inhibition of IL-12 induced pSTAT-4 in murine whole blood.

[5] = SS-1, mice, read-out: inhibition of IL-22/IL-6/IFNα-stimulated pSTAT-3 response in colon explants
[6] = SS-1, mice, read-out: inhibition of basal pSTAT-3 response in colon explants
[7] = SS-2, mice, read-out: inhibition of IL-22/IL-6/IFNα-stimulated pSTAT-3 in colon explants
[8] = SS-2, mice, read-out: inhibition of basal pSTAT-3 in colon explants

T1 sequence (P23458 whole entry): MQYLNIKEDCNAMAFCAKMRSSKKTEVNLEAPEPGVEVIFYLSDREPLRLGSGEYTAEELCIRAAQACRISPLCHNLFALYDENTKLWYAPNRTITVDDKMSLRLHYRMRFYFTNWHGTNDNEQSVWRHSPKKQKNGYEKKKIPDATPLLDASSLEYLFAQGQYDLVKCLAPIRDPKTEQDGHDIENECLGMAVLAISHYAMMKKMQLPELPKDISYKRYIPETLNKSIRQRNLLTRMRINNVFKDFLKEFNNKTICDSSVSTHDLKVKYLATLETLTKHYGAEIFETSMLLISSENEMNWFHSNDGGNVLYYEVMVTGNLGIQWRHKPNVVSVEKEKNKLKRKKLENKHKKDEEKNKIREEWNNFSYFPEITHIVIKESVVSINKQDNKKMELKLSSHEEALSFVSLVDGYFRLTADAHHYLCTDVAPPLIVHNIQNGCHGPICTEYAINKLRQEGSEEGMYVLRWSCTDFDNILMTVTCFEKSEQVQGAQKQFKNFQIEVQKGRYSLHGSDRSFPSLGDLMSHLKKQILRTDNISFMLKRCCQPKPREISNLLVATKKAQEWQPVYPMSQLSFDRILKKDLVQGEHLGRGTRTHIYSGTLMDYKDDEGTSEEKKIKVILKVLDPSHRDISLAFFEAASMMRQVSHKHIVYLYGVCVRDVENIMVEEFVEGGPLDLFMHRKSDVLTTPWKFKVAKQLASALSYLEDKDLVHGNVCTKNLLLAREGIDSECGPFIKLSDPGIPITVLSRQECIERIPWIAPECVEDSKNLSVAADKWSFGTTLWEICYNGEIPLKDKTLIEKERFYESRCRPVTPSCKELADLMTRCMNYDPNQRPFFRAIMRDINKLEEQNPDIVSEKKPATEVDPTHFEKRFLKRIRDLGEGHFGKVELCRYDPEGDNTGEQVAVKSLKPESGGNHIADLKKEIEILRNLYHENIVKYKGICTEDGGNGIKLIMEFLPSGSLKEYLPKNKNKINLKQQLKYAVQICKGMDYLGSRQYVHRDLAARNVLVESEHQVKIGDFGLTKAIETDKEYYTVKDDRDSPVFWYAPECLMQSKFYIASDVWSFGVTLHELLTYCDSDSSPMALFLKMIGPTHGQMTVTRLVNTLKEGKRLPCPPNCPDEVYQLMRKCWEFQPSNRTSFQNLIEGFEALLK
T1 sequence (P29597 whole entry): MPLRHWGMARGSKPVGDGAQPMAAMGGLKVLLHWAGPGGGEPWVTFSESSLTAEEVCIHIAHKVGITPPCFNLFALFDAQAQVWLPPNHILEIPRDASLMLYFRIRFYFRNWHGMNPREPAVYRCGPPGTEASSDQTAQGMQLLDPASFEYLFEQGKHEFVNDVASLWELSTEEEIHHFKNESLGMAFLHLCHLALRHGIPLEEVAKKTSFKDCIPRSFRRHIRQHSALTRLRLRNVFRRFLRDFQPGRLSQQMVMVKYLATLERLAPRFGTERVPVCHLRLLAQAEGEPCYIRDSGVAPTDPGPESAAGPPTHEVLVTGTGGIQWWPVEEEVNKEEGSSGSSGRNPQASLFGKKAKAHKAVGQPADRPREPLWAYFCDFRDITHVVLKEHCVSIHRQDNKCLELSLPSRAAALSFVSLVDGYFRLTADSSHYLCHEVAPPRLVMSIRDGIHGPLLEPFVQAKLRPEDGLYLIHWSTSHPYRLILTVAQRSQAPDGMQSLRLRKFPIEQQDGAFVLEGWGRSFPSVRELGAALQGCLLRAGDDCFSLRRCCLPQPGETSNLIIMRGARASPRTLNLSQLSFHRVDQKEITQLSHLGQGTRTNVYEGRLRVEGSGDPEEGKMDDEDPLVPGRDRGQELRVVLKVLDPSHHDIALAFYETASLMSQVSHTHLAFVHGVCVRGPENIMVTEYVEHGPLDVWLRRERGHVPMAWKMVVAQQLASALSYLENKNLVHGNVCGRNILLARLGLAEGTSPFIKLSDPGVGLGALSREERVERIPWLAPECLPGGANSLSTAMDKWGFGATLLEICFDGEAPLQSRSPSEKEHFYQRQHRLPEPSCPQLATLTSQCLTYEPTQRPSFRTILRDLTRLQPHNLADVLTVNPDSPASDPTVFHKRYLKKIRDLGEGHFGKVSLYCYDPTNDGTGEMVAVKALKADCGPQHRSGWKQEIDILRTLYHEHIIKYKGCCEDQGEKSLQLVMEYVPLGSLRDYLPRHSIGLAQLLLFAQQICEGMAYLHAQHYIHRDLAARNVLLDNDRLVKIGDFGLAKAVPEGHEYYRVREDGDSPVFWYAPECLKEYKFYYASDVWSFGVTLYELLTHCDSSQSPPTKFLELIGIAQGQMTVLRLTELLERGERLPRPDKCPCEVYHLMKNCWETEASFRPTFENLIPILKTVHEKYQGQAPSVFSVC
T1 sequence (P17181 28-557 partner): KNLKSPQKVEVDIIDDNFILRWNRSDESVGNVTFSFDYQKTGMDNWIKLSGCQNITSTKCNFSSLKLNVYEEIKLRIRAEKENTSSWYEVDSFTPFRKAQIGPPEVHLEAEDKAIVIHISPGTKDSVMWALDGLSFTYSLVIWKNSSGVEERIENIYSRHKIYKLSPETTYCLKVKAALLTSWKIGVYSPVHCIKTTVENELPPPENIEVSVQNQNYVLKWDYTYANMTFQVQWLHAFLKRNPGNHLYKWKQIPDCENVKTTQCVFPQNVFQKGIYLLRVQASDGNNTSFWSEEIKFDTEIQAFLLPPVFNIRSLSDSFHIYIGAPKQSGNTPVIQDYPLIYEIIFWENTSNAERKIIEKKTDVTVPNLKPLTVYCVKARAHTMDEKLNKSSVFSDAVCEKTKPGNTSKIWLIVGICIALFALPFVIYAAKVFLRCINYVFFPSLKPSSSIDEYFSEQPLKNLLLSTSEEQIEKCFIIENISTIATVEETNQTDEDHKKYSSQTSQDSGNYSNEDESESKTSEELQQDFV
T1 sequence (P48551 27-515 partner): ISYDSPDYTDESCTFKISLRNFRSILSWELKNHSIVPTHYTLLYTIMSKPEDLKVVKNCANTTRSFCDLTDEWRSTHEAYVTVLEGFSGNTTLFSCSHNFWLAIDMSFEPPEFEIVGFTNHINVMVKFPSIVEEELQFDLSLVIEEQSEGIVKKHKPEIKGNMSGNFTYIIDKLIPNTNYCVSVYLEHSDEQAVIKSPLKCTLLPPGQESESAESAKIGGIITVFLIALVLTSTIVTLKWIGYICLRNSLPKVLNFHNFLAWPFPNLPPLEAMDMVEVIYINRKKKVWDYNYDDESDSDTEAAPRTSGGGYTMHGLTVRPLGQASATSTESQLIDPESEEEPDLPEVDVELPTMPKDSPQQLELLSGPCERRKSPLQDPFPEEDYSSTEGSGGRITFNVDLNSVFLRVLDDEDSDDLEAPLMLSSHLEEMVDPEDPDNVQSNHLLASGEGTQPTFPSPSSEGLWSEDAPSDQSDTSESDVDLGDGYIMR

In the case of `CC(C)(O)CNC(=O)Cc1nc2cnc3[nH]ccc3c2n1[C@H]1CC[C@H](CC#N)CC1` [Compound of Formula I, 2-(1-((1r,4r)-4-(Cyanomethyl)cyclohexyl)-1,6-dihydroimidazo[4,5-d]pyrrolo[2,3-b]pyridin-2-yl)-N-(2-hydroxy-2-methylpropyl)acetamide], the IC50 (JAK1/Tyk2 [1]) is reported as 105 nM, the inhibition at 0.5 mg/kg [2, 5] is reported as 42.7% and the inhibition at 0.5 mg/kg [2, 6] is reported as 54.3%. The inhibition at 2.5 mg/kg [2, 5] was 74.9%, the inhibition at 2.5 mg/kg [2, 6] was 74.4% and the inhibition at 5 mg/kg [2, 5] was 83.8%. For the same compound, the inhibition at 5 mg/kg [2, 6] was 78.6%, the inhibition at 25 mg/kg [2, 5] was 93.8% and the inhibition at 25 mg/kg [2, 6] was 89.5%. The inhibition at 0.5 mg/kg [2, 7] was 5.5%, the inhibition at 0.5 mg/kg [2, 8] was 36.7% and the inhibition at 2.5 mg/kg [2, 7] was 62%. It also gave an inhibition at 2.5 mg/kg [2, 8] of 66.2%, an inhibition at 5 mg/kg [2, 7] of 68.1% and an inhibition at 5 mg/kg [2, 8] of 71.3%. For the same compound, the inhibition at 25 mg/kg [2, 7] was 89.8%, the inhibition at 25 mg/kg [2, 8] was 83.8% and the inhibition at 10 mg/kg ([3]; Study S-1, oral 10 mg/kg) was 3.9%. The inhibition at 25 mg/kg ([3]; Study S-1, oral 25 mg/kg) was 25.8%, the inhibition at 50 mg/kg ([3]; Study S-1, oral 50 mg/kg) was 49.7% and the inhibition at 10 mg/kg ([3]; Study S-2, oral 10 mg/kg) was 33.1%. For the same compound, the inhibition at 25 mg/kg ([3]; Study S-2, oral 25 mg/kg) was 61.2%, the inhibition at 50 mg/kg ([3]; Study S-2, oral 50 mg/kg) was 66.1% and the IC50 (JAK1/JAK3) was 579 nM. It also gave an IC50 (JAK1/Tyk2 [4]) of 299 nM.
